Measured values as given in article PMC12024912, “Druggability Studies of Benzene Sulfonamide Substituted Diarylamide (E3) as a Novel Diuretic” (Biomedicines, 2025).

Experiments:
[1] = Liver microsome metabolic stability, mouse; assay type: in vitro ADME; settings: 60 min incubation, 37 °C
Method: (§1) Plasma from mice, rats, rabbits, and humans was obtained from blood after centrifugation at 3000 r/min for 10 min. Simulated gastric fluid (SGF, pH = 1, containing pepsin) and simulated intestinal fluid (SIF, pH = 6.8, containing trypsin) were configured previously in the experiments. SD rats and mice were collected, and after removing the mucus layer from the small intestine and colon, 20 times the volume of liquid bacterial culture medium was added. An intestinal microbiota suspension was obtained after anaerobic cultivation on a shaking table at 37 °C for 12 h. In the aforementioned systems, E3 was added at a final concentration of 1 μmol/L at 37 °C for different incubation times (0, 10, 20, 30, 60, 120, and 240 min). In liver metabolic stability assays, E3 was incubated with liver microsomes or liver homogenate from mice or rats for 60 min at 37 °C. The stop solution, 5 ng/mL tolbutamide (internal standard, IS) in acetonitrile, was added to stop the metabolic process. Post-centrifugation (18,000× g, 10 min, 4 °C), supernatants were subjected to liquid chromatography–tandem mass spectrometry (LC–MS/MS). Analyte-to-IS peak area ratios quantified residual percentages via Equation (2):Remaining% = (E3peak area/ISpeak area at different time)/(E3peak area/ISpeak area at 0 min) × 100%.(2)

SD rats = assay: Long-term (7 d) diuretic activity in rats; assay type: in vivo, rat; settings: for ALT / AST / Body weight / Brain index / Heart index / Kidney index / Liver index / Serum K / Serum Na / Serum creatinine / Serum urea / Spleen index / Testis index: n=6
Method: In a single-dose administration experiment, male wild-type (WT) mice, UT-B^−/− mice, UT-A1^−/− mice, or SD rats were adapted in metabolic cages for 3 d. Food and water were provided ad libitum throughout the experiment. Prior to administration, the bladder of each animal was emptied through gentle abdominal massage, and urine was collected from the metabolic cages every 2 h. Compound E3, suspended in 0.5% CMC-Na at an appropriate concentration, was administered intragastric gavage to the mice or rats (0.16, 0.8, 4, or 20 mg/kg). Vehicle control comprised 0.5% (w/v) CMC-Na. Urinary parameters were determined through the following: volume: Gravimetric analysis (1 g/mL density assumption); osmolality: freezing-point osmometry (Micro-osmometer, Fisker Associates, Norwood, MA, USA); and urea: diacetyl oxime colorimetry (QuantiChrom® kit, Elabscience, Wuhan, China). In long-term (7 d) diuretic activity experiments, male WT mice, UT-B^−/− mice, UT-A1^−/− mice, and SD rats were acclimatized in metabolic cages (Ugo Basile, Comerio, VA, Italy) for 3 d. Food and water were provided ad libitum throughout the experiment. E3 was suspended in 0.5% CMC-Na and administered at a dose of 4 or 20 mg/kg by intragastric gavage. Urine was collected by metabolic cages every 24 h. Body weight was measured daily. At 4 h after the final administration, a blood sample was obtained by heart puncture. Inner medulla and outer medulla tissue homogenates were prepared, and the supernatant after centrifugation was analyzed for solute concentration and osmolality. Urinary osmolality and urea concentration were measured as above. Serum Na^+, K^+, and Cl^− were measured in a clinical chemistry laboratory, while serum creatinine, ALT, and AST were measured through specific reagent kits (NJJC Bio, Nanjing, China).
Multiple tissues and organs were fixed with 4% paraformaldehyde and embedded in paraffin. Five μm paraffin sections were cut and stained with hematoxylin and eosin (H&E).
Inner medulla tissues were homogenized in ice-cold RIPA buffer supplemented with protease/phosphatase inhibitors (Roche, Basel, Switzerland). Following centrifugation (12,000× g, 15 min, 4 °C), supernatants were subjected to BCA quantification (Thermo Scientific, Waltham, MA, USA). Protein lysates underwent SDS-PAGE separation and electrotransfer to PVDF membranes (Amersham Biosciences, Boston, MA, USA). After 2 h blocking with 5% skimmed milk, membranes were sequentially processed with: (1) TBST washes (20 mM Tris-HCl, 137 mM NaCl, 0.1% Tween-20, pH 7.4); (2) primary antibodies (UT-A1/A2/A3, UT-B, AQP2/3, β-actin; 4 °C, 12 h); and (3) HRP-conjugated secondary antibodies (anti-mouse/rabbit IgG; RT, 2 h). Chemiluminescent detection employed the ECL reagent (Meilunbio, Dalian, China) on a Syngene GeneGnome XRQ system, with band quantification via ImageJ (v1.53k).

Blood stability, rat = assay type: in vitro ADME; settings: plasma, n=3
Method: as §1

With CC(=O)c1ccc(C(=O)Nc2cccc(NS(=O)(=O)c3ccccc3)c2)o1 [Compound E3, 5-acetyl-N-(3-(phenylsulfonamido)phenyl)furan-2-carboxamide] the “remaining amount, mouse liver microsomes” value [1] was 36.8%, the urine output (SD rats; 4 mg/kg and 20 mg/kg intragastric, 7 d) was “continuously increased” and the ALT (SD rats; 4 mg/kg, 7 d) was 42.2±5.5 U/L. It also gave an AST (SD rats; 4 mg/kg, 7 d) of 113.0±10.6 U/L, a Body weight (SD rats; 4 mg/kg, 7 d) of 242.4 ± 2.3 g and a Brain index (SD rats; 4 mg/kg, 7 d) of 0.58±0.01%. The Heart index (SD rats; 4 mg/kg, 7 d) was 0.38±0.01%, the Kidney index (SD rats; 4 mg/kg, 7 d) was 0.78±0.03% and the Liver index (SD rats; 4 mg/kg, 7 d) was 3.98±0.08%. The “Serum K” value (SD rats; 4 mg/kg, 7 d) was 5.16 ± 0.10 mM, the “Serum Na” value (SD rats; 4 mg/kg, 7 d) was 140.7 ± 1.2 mM and the Serum creatinine (SD rats; 4 mg/kg, 7 d) was 33.6 ± 1.7 µM. The Serum urea (SD rats; 4 mg/kg, 7 d) was 7.15 ± 0.16 mM, the Spleen index (SD rats; 4 mg/kg, 7 d) was 0.30±0.02% and the Testis index (SD rats; 4 mg/kg, 7 d) was 0.88±0.06%. For the same compound, the ALT (SD rats; 20 mg/kg, 7 d) was 40.2±1.9 U/L, the AST (SD rats; 20 mg/kg, 7 d) was 112.9±4.5 U/L and the Body weight (SD rats; 20 mg/kg, 7 d) was 240.8 ± 4.1 g. It also gave a Brain index (SD rats; 20 mg/kg, 7 d) of 0.64±0.01%, a Heart index (SD rats; 20 mg/kg, 7 d) of 0.40±0.01% and a Kidney index (SD rats; 20 mg/kg, 7 d) of 0.73±0.03%. The Liver index (SD rats; 20 mg/kg, 7 d) was 3.99±0.06%, the “Serum K” value (SD rats; 20 mg/kg, 7 d) was 4.98 ± 0.12 mM and the “Serum Na” value (SD rats; 20 mg/kg, 7 d) was 141.3 ± 1.0 mM. The Serum creatinine (SD rats; 20 mg/kg, 7 d) was 34.1 ± 1.6 µM, the Serum urea (SD rats; 20 mg/kg, 7 d) was 7.18 ± 0.19 mM and the Spleen index (SD rats; 20 mg/kg, 7 d) was 0.29±0.01%. The Testis index (SD rats; 20 mg/kg, 7 d) was 0.94±0.02%, the “excretion of non-urea solutes” value (SD rats; 4 and 20 mg/kg, 7 d) was “did not change” and the urine osmolality (SD rats; 4 and 20 mg/kg, 7 d) was “significantly decreased”. The “H&E staining of cortex and medulla of rat kidneys” value (SD rats; 7 d, except dilatation of the collecting duct due to polyuria) was “did not induce morphological abnormalities”, the “non-urea solutes in inner medullary tissue” value (SD rats; 7 d, vs control) was “did not change” and the “osmolality in inner medullary tissue” value (SD rats; 7 d, vs control) was “significantly decreased”. The “outer medullary osmolality, urea concentration, and non-urea solute concentration” value (SD rats; 7 d, vs control) was “no differences”, the “urea concentration in inner medullary tissue” value (SD rats; 7 d, vs control) was “significantly decreased” and the “body weight, organ indexes, blood biochemical parameters (incl. serum Na+, K+, Cl−)” value (SD rats; after 7 d of treatment, vs control) was “no significant difference”. It also gave a remaining at 1 μmol/L (Blood stability, rat) of 46.8%.
